{"source": "ChEMBL document CHEMBL5223078", "about": "“Proteases and Their Modulators in Cancer Therapy: Challenges and Opportunities” (J Med Chem, 2021)", "key": {"[1]": {"biological_target": "von Hippel-Lindau disease tumor suppressor/GTPase KRas (Homo sapiens, UniProt P01116+P40337)", "sequence (P01116 whole entry)": "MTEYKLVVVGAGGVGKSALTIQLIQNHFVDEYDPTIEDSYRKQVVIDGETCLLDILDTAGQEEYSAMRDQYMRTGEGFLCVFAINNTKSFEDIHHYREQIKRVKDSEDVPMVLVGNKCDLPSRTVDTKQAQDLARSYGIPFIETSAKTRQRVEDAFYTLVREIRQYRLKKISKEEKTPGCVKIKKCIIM", "sequence (P40337 whole entry)": "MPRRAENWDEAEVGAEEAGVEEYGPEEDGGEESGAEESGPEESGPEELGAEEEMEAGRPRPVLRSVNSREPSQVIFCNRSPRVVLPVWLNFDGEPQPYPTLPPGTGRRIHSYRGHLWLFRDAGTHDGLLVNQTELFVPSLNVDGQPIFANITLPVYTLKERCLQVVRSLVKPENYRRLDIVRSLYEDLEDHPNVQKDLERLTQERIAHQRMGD", "assay": "Protac activity at VHL E3 ligase/KRAS G12 degradation in human MDA-MB-231 cells assessed as […] by western blot analysis", "assay_type": "cell-based"}, "[2]": {"biological_target": "Protein cereblon/Tyrosine-protein kinase BTK (Homo sapiens, UniProt Q06187+Q96SW2, C481S)", "sequence (Q06187 2-659 C481S limits assumed, stated change not applied)": "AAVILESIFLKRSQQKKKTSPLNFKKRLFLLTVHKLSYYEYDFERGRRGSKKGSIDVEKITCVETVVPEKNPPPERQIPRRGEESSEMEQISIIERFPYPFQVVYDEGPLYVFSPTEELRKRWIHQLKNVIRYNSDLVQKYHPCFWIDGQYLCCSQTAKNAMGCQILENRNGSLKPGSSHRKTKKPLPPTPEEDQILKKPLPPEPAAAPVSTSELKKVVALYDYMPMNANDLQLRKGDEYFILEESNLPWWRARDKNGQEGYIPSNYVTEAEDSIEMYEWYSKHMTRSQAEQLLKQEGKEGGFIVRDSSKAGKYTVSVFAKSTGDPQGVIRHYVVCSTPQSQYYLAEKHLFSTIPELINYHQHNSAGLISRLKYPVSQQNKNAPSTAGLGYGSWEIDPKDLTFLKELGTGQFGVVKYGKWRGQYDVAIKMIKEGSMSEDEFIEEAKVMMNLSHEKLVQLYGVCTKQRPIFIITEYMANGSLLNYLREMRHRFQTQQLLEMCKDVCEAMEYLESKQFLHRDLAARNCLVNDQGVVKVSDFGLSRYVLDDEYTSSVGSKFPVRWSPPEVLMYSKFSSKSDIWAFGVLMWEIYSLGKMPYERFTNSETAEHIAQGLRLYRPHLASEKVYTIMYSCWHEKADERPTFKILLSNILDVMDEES", "sequence (Q96SW2 whole entry, stated change not applied)": "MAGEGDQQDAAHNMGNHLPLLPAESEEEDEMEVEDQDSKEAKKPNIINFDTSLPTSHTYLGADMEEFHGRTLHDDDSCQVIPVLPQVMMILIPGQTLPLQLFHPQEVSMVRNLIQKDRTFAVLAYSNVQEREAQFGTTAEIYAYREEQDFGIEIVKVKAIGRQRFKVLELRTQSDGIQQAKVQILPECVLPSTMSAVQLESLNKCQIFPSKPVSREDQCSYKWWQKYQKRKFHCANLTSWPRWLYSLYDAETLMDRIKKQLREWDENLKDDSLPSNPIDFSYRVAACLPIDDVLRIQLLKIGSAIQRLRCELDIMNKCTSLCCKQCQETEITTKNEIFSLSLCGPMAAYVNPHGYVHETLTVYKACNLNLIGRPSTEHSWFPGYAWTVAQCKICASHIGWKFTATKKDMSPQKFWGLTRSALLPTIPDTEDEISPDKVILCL", "assay": "Protac activity at CRBN (unknown origin)/BTK C481S mutant (unknown origin) assessed as BTK C481S mutant degradation", "assay_type": "protein assay"}, "[3]": {"biological_target": "20S proteasome", "assay": "Inhibition of 20S proteasome (unknown origin)", "assay_type": "protein-complex assay, Homo sapiens"}, "[4]": {"system": "MDA-MB-231", "assay": "Antitumor activity against human MDA-MB-231 cells xenografted in mouse model assessed as reduction in ERRalpha level in mouse heart at 100 mg/kg, ip administered 3 times a day relative to control", "assay_type": "functional", "parameters": "scale not given: the % may be the effect or the level left"}, "[5]": {"system": "MDA-MB-231", "assay": "Antitumour activity against human MDA-MB-231 cells xenografted in mouse model assessed as reduction in ERRalpha level of tumor growth at 100 mg/kg, ip administered 3 times a day relative to control", "assay_type": "functional", "parameters": "scale not given: the % may be the effect or the level left"}, "[6]": {"system": "MDA-MB-231", "assay": "Antitumor activity against human MDA-MB-231 cells xenografted in mouse model assessed as reduction in ERRalpha level in mouse kidney at 100 mg/kg, ip administered 3 times a day relative to control", "assay_type": "functional", "parameters": "scale not given: the % may be the effect or the level left"}, "[7]": {"system": "SUM-159-PT", "assay": "Inhibition of colony formation in human SUM159PT assessed as complete inhibition of cell growth measured after 48 hrs by crystal violet staining based analysis", "assay_type": "functional"}, "[8]": {"system": "SUM-159-PT", "assay": "Cytotoxicity against human SUM159PT cells assessed as cell growth inhibition measured after 72 hrs by MTS assay", "assay_type": "functional, cell-based"}, "[9]": {"assay": "Cytotoxicity against human TEX cells assessed as cell growth inhibition measured after 72 hrs by spectrophotometry", "assay_type": "functional, cell-based"}, "[10]": {"system": "OCI-AML-3", "assay": "Cytotoxicity against human OCI-AML-3 cells assessed as cell growth inhibition measured after 72 hrs by spectrophotometry", "assay_type": "functional, cell-based", "conditions": "OCI-AML-3, 72 h"}, "[11]": {"system": "OCI-AML2", "assay": "Cytotoxicity against human OCI-AML2 cells assessed as cell growth inhibition measured after 72 hrs by spectrophotometry", "assay_type": "functional, cell-based", "conditions": "OCI-AML2, 72 h"}, "[12]": {"system": "HCT-116", "assay": "Antiproliferative activity against human HCT-116 cells assessed as reduction in cell viability at 200 nm measured after 72 hrs by MTS assay relative to control", "assay_type": "functional"}}, "data": [{"smiles": "C=C(F)C(=O)N1CCN(c2nc(OC[C@@H]3CCCN3CCCOCCC(=O)N[C@H](C(=O)N3C[C@H](O)C[C@H]3C(=O)NCc3ccc(-c4scnc4C)cc3)C(C)(C)C)nc3c2CCN(c2cccc4cccc(Cl)c24)C3)C[C@@H]1CC#N", "values": [{"measurement": "DC50", "setting": "[1]", "value": 250, "unit": "nM"}]}, {"smiles": "Nc1ncnc2c1c(-c1ccc(Oc3ccccc3)cc1)nn2[C@@H]1CCCN(C(=O)c2cn(CCOCCOCCOCCCc3cccc4c3C(=O)N(C3CCC(=O)NC3=O)C4=O)nn2)C1", "note": "(stereo partly drawn)", "values": [{"measurement": "DC50", "setting": "[2]", "value": 50, "unit": "nM"}]}, {"smiles": "CC[C@H]1C(=O)NC2([C@@H](O)[C@@H]3C=CCCC3)C(=O)O[C@@H]12", "note": "(stereo partly drawn)", "values": [{"measurement": "IC50", "setting": "[3]", "value": 90, "unit": "nM"}]}, {"smiles": "COc1cc(/C=C2\\SC(=O)N(CCOCCC(=O)N[C@@H](C(=O)N3C[C@H](O)C[C@H]3C(=O)NCc3ccc(-c4scnc4C)cc3)C(C)(C)C)C2=O)ccc1Oc1ccc(C#N)cc1C(F)(F)F", "values": [{"measurement": "Activity", "setting": "[4]", "value": 44, "unit": "%"}, {"measurement": "Activity", "setting": "[5]", "value": 39, "unit": "%"}, {"measurement": "Activity", "setting": "[6]", "value": 44, "unit": "%"}]}, {"smiles": "Cn1c2c(c(=O)n(Cc3ccc(Cl)cc3)c1=O)CN(Cc1cccc(C#N)c1)CC2", "values": [{"measurement": "INH", "setting": "[7]", "value": 30, "unit": "nM"}, {"measurement": "IC50", "setting": "[8]", "value": 14, "unit": "nM"}]}, {"smiles": "Cc1cccc(CN2CCc3c(c(=O)n(Cc4ccc(C(F)(F)F)cc4)c(=O)n3CCCN)C2)c1", "values": [{"measurement": "IC50", "setting": "[8]", "value": 57, "unit": "nM"}]}, {"smiles": "N#Cc1cccc(CN2CCC3=C(C2)C(=O)N(Cc2ccc(C(F)(F)F)cc2)C2=NCCN23)c1", "values": [{"measurement": "IC50", "setting": "[8]", "value": 11, "unit": "nM"}]}, {"smiles": "O=C1C2=C(CCN(Cc3ccccc3)C2)N2CCN=C2N1Cc1ccc(C(F)(F)F)cc1", "values": [{"measurement": "IC50", "setting": "[9]", "value": 71, "unit": "nM"}, {"measurement": "IC50", "setting": "[10]", "value": 60, "unit": "nM"}, {"measurement": "IC50", "setting": "[11]", "value": 76, "unit": "nM"}, {"measurement": "Activity", "setting": "[12]", "value": 10, "unit": "%"}, {"measurement": "IC50", "setting": "[8]", "value": 77, "unit": "nM"}]}, {"smiles": "C#Cc1cccc(CN2CCC3=C(C2)C(=O)N(Cc2ccc(C)cc2)C2=NCCN23)c1", "values": [{"measurement": "IC50", "setting": "[8]", "value": 100, "unit": "nM"}]}, {"smiles": "CCCC[C@@H](C=O)NC(=O)[C@H](CC(C)C)NC(=O)[C@@H](CC(C)C)NC(=O)CC", "values": [{"measurement": "IC50", "setting": "[3]", "value": 90, "unit": "nM"}]}, {"smiles": "N#Cc1cccc(CN2CCC3=C(C2)C(=O)N(Cc2ccc(Cl)cc2)C2=NCCN23)c1", "values": [{"measurement": "IC50", "setting": "[8]", "value": 7.4, "unit": "nM"}]}]}
